Experimental data as given in the NIST ThermoML archive (doi:10.1016/j.jct.2018.07.025).
± gives the expanded uncertainty stated by the source.

Legend:
[1] = Crystal; DTA
[2] = Molar enthalpy of transition or fusion; settings: Crystal; DSC

Structure (SMILES)	Normal melting temperature [1] [°C]	Molar enthalpy of transition or fusion [2] [kcal/mol]
COC(=O)N(OC)c1ccccc1COc1ccn(-c2ccc(Cl)cc2)n1 [Pyraclostrobin]	60.60 ± 1.1	7.22 ± 0.239
COC(=O)N(O)c1ccccc1COc1ccn(-c2ccc(Cl)cc2)n1	143.30 ± 1.1	12.3 ± 0.311
